{"source": "patent US4562287A", "about": "“2-(4-Biphenylyl)-4-hexenoic acid and derivatives thereof having anti-inflammatory activity” (priority 1983, dated 1985)", "key": {"Carragenine edema": {"test_system": "Carragenine edema", "test": "Edema induced by different substances: carragenine (Table 3)", "type": "in vivo", "excerpt": "(§1) |Edema induced by different substances."}, "Kaolin edema": {"test_system": "Kaolin edema", "test": "Edema induced by different substances: kaolin (Table 3)", "type": "in vivo", "excerpt": "as §1"}, "Yeast edema": {"test_system": "Yeast edema", "test": "Edema induced by different substances: yeast (Table 3)", "type": "in vivo", "excerpt": "|Edema induced by different substances. | % edema inhibition"}, "Serotonin edema": {"test_system": "Serotonin edema", "test": "Edema induced by different substances: serotonin (Table 3)", "type": "in vivo", "excerpt": "as §1"}, "Dextrose edema": {"test_system": "Dextrose edema", "test": "Edema induced by different substances: dextrose (Table 3)", "type": "in vivo", "excerpt": "as §1"}, "[1]": {"test_system": "capillary permeability (Histamine)", "test": "Effect on the capillary permeability, histamine", "type": "in vivo", "details": "200 mg/Kg p.o., checks 21.33", "excerpt": "(§2) |Effect on the capillary permeability"}, "[2]": {"test_system": "capillary permeability (Dextran)", "test": "Effect on the capillary permeability, dextran", "type": "in vivo", "details": "200 mg/Kg p.o., checks 14.83", "excerpt": "as §2"}, "[3]": {"test_system": "Cotton-pellets induced granuloma", "test": "Cotton-pellets induced granuloma", "type": "in vivo", "details": "200 mg/Kg p.o.", "excerpt": "| Cotton-pellets induced granuloma."}, "[4]": {"test_system": "Carragenine induced edema", "test": "Activity on carragenine induced edema (Table 9)", "type": "in vivo", "excerpt": "|Activity on carragenine induced edema."}, "[5]": {"test_system": "Hot plate, endurance time at 52° C.", "test": "Analgesic activity, Hot plate (I)", "type": "in vivo", "details": "50 mg/Kg p.o.", "experimental": "Dose endurance time at 52° C. over checks"}, "[6]": {"test_system": "Carragenine induced edema", "test": "Anti-inflammatory activity on carragenine induced edema (Table 11)", "type": "in vivo"}, "[7]": {"test_system": "capillary permeability (Serotonin)", "details": "200 mg/Kg p.o., checks 18.16"}, "[8]": {"details": "British Patent No. 847.779; cited from earlier work"}, "[9]": {"test_system": "Carragenine induced edema", "test": "Carragenine induced edema, first test (Table 2)", "type": "in vivo", "excerpt": "|ANTI-INFLAMMATORY ACTIVITY. |Carragenine induced edema, first test."}, "Joint's diameter": {"test_system": "Joint's diameter", "test": "Joint's diameter in arthritis (Table 7)", "type": "in vivo", "set-up": "unit not given here"}, "SH Groups in serum": {"test_system": "SH Groups in serum", "test": "SH groups in serum (Table 8)", "type": "in vivo", "details": "arthritis checks 70, 77"}, "[10]": {"test_system": "erytrocytes sedimetation rate (ESR)", "test": "Erytrocytes sedimetation rate (ESR) (Table 8)", "type": "in vivo", "details": "arthritis checks 41, 56"}, "ulcerogenic effect": {"test_system": "ulcerogenic effect", "details": "dose 5 mg; cited from earlier work"}, "[11]": {"test_system": "Freund's adjuvant induced arthritis", "test": "Freund's adjuvant induced arthritis, edema inhibition"}}, "data": [{"smiles": "CC=CCC(C(=O)O)c1ccc(-c2ccccc2)cc1", "note": "(racemic) [SCR 157, 2-(4-biphenyl)-4-hexenoic acid]", "values": [{"measurement": "% edema inhibition", "setting": "Carragenine edema; 50 mg/Kg p.o.", "value": 8, "unit": "%"}, {"measurement": "% edema inhibition", "setting": "Carragenine edema; 100 mg/Kg p.o.", "value": 43, "unit": "%"}, {"measurement": "% edema inhibition", "setting": "Carragenine edema; 200 mg/Kg p.o.", "value": 64, "unit": "%"}, {"measurement": "% edema inhibition", "setting": "Kaolin edema; 50 mg/Kg p.o.", "value": 42, "unit": "%"}, {"measurement": "% edema inhibition", "setting": "Kaolin edema; 100 mg/Kg p.o.", "value": 49, "unit": "%"}, {"measurement": "% edema inhibition", "setting": "Kaolin edema; 200 mg/Kg p.o.", "value": 57, "unit": "%"}, {"measurement": "% edema inhibition", "setting": "Yeast edema; 50 mg/Kg p.o.", "value": 11, "unit": "%"}, {"measurement": "% edema inhibition", "setting": "Yeast edema; 100 mg/Kg p.o.", "value": 22, "unit": "%"}, {"measurement": "% edema inhibition", "setting": "Yeast edema; 200 mg/Kg p.o.", "value": 28, "unit": "%"}, {"measurement": "% edema inhibition", "setting": "Serotonin edema; 50 mg/Kg p.o.", "value": 0, "unit": "%"}, {"measurement": "% edema inhibition", "setting": "Serotonin edema; 100 mg/Kg p.o.", "value": 16, "unit": "%"}, {"measurement": "% edema inhibition", "setting": "Serotonin edema; 200 mg/Kg p.o.", "value": 22, "unit": "%"}, {"measurement": "% edema inhibition", "setting": "Dextrose edema; 50 mg/Kg p.o.", "value": 0, "unit": "%"}, {"measurement": "% edema inhibition", "setting": "Dextrose edema; 100 mg/Kg p.o.", "value": 8, "unit": "%"}, {"measurement": "% edema inhibition", "setting": "Dextrose edema; 200 mg/Kg p.o.", "value": 8, "unit": "%"}, {"measurement": "Effect on the capillary permeability, .0. m.micron", "setting": "[1]", "value": 20.28, "unit": "m.micron"}, {"measurement": "Effect on the capillary permeability, .0. m.micron", "setting": "[2]", "value": 14.85, "unit": "m.micron"}, {"measurement": "% inhibition", "setting": "[3]", "value": 29, "unit": "%"}, {"measurement": "Inhibition %", "setting": "[4]; 50 mg/Kg p.o.", "value": 10, "unit": "%"}, {"measurement": "Inhibition %", "setting": "[4]; 75 mg/Kg p.o.", "value": 31, "unit": "%"}, {"measurement": "Inhibition %", "setting": "[4]; 112,5 mg/Kg p.o.", "value": 24, "unit": "%"}, {"measurement": "endurance time at 52° C. over checks", "setting": "[5]; 1 hour", "value": 3}, {"measurement": "endurance time at 52° C. over checks", "setting": "[5]; 2 hours", "value": 26}, {"measurement": "% inhibition", "setting": "[6]; 50 mg/Kg p.o.", "value": 33, "unit": "%"}, {"measurement": "Effect on the capillary permeability, .0. m.micron", "setting": "[7]", "value": 16.57, "unit": "m.micron"}, {"measurement": "anticholesterinemic and antiliphaemic properties", "setting": "[8]", "value": "exhibits properties of anticholesterinemic and antiliphaemic agent"}]}, {"smiles": "COc1ccc2c(c1)c(CC(=O)O)c(C)n2C(=O)c1ccc(Cl)cc1", "note": "[Indomethacin]", "values": [{"measurement": "% inhibition", "setting": "[9]; 2.5 mg/Kg p.o.", "value": 33, "unit": "%"}, {"measurement": "% inhibition", "setting": "[9]; 5 mg/Kg p.o.", "value": 36, "unit": "%"}, {"measurement": "% inhibition", "setting": "[9]; 10 mg/Kg p.o.", "value": 48, "unit": "%"}, {"measurement": "Joint's diameter", "setting": "Joint's diameter; 1 mg/Kg p.o., 1 week, arthritis checks 0.48, 0.38", "value": 0.38}, {"measurement": "Joint's diameter", "setting": "Joint's diameter; 1 mg/Kg p.o., 2 weeks, arthritis checks 0.71, 0.75", "value": 0.50}, {"measurement": "Joint's diameter", "setting": "Joint's diameter; 1 mg/Kg p.o., 3 weeks, arthritis checks 0.81, 0.79", "value": 0.49}, {"measurement": "Joint's diameter", "setting": "Joint's diameter; 1 mg/Kg p.o., 4 weeks, arthritis checks 0.85, 0.89", "value": 0.55}, {"measurement": "Joint's diameter", "setting": "Joint's diameter; 2 mg/Kg p.o., 1 week, arthritis checks 0.48, 0.38", "value": 0.22}, {"measurement": "Joint's diameter", "setting": "Joint's diameter; 2 mg/Kg p.o., 2 weeks, arthritis checks 0.71, 0.75", "value": 0.39}, {"measurement": "Joint's diameter", "setting": "Joint's diameter; 2 mg/Kg p.o., 3 weeks, arthritis checks 0.81, 0.79", "value": 0.34}, {"measurement": "Joint's diameter", "setting": "Joint's diameter; 2 mg/Kg p.o., 4 weeks, arthritis checks 0.85, 0.89", "value": 0.34}, {"measurement": "SH groups diminution in %", "setting": "SH Groups in serum; 1 mg/Kg p.o.", "value": 78, "unit": "%"}, {"measurement": "SH groups diminution in %", "setting": "SH Groups in serum; 2 mg/Kg p.o.", "value": 50, "unit": "%"}, {"measurement": "E.S.R.", "setting": "[10]; 1 mg/Kg p.o.", "value": 38}, {"measurement": "E.S.R.", "setting": "[10]; 2 mg/Kg p.o.", "value": 15}, {"measurement": "% inhibition", "setting": "[6]; 5 mg/Kg p.o.", "value": 38, "unit": "%"}, {"measurement": "ulcerogenic effect", "setting": "ulcerogenic effect", "value": "exhibits surely ulcerogenic effect"}, {"measurement": "Edema inhibition %", "setting": "[11]; 1 mg/Kg p.o., 2 days", "value": 49, "unit": "%"}, {"measurement": "Edema inhibition %", "setting": "[11]; 1 mg/Kg p.o., 4 days", "value": 7, "unit": "%"}, {"measurement": "Edema inhibition %", "setting": "[11]; 1 mg/Kg p.o., 8 days", "value": 27, "unit": "%"}, {"measurement": "Edema inhibition %", "setting": "[11]; 1 mg/Kg p.o., 12 days", "value": 58, "unit": "%"}, {"measurement": "Edema inhibition %", "setting": "[11]; 1 mg/Kg p.o., 16 days", "value": 60, "unit": "%"}, {"measurement": "Edema inhibition %", "setting": "[11]; 1 mg/Kg p.o., 20 days", "value": 37, "unit": "%"}, {"measurement": "Edema inhibition %", "setting": "[11]; 1 mg/Kg p.o., 24 days", "value": 57, "unit": "%"}, {"measurement": "Edema inhibition %", "setting": "[11]; 2 mg/Kg p.o., 2 days", "value": 49, "unit": "%"}, {"measurement": "Edema inhibition %", "setting": "[11]; 2 mg/Kg p.o., 4 days", "value": 35, "unit": "%"}, {"measurement": "Edema inhibition %", "setting": "[11]; 2 mg/Kg p.o., 8 days", "value": 51, "unit": "%"}, {"measurement": "Edema inhibition %", "setting": "[11]; 2 mg/Kg p.o., 12 days", "value": 48, "unit": "%"}, {"measurement": "Edema inhibition %", "setting": "[11]; 2 mg/Kg p.o., 16 days", "value": 71, "unit": "%"}, {"measurement": "Edema inhibition %", "setting": "[11]; 2 mg/Kg p.o., 20 days", "value": 73, "unit": "%"}, {"measurement": "Edema inhibition %", "setting": "[11]; 2 mg/Kg p.o., 24 days", "value": 71, "unit": "%"}]}]}
